Experimental data published in the supplement of paper PMC10307832.

Key:
Experiment in all cases: relative viability (nuclei count vs DMSO), 5 days (fraction); higher = more cells survive
[1] = system: NCI-H727
How it was run: (§1)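 Nuclei were stained with Hoechst during a one-step fixation (final 0.05% Triton X-100, 1% formaldehyde, 1 ug/ml Hoechst) carried out 5 days after dosing, then counted on 4× images. The cells, lung cancer lines in 1536-well plates, had been dosed by pin tool the day after seeding with one drug alone or a fixed anchor-drug dose plus five library-drug doses (not always all listed) in √10 steps. Relative viability is the nuclei count in treated wells divided by that in vehicle wells, and each value is the median of duplicate plates.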

[2] = system: NCI-H522
How it was run: as §1

[3] = system: NCI-H647
How it was run: as §1

[4] = system: EPLC-272H
How it was run: as §1

[5] = system: NCI-H838
How it was run: as §1

[6] = system: COR-L23
How it was run: as §1

[7] = system: NCI-H1792
How it was run: as §1

[8] = system: EKVX
How it was run: as §1

[9] = system: NCI-H661
How it was run: as §1

[10] = system: NCI-H1651
How it was run: as §1

[11] = system: NCI-H2087
How it was run: as §1

[12] = system: NCI-H1437
How it was run: as §1

[13] = system: NCI-H1650
How it was run: as §1

[14] = system: ABC-1
How it was run: as §1

[15] = system: UMC-11
How it was run: as §1

[16] = system: LCLC-103H
How it was run: as §1

[17] = system: HCC-44
How it was run: as §1

[18] = system: NCI-H520
How it was run: as §1

[19] = system: H3255
How it was run: as §1

[20] = system: 201T
How it was run: as §1

[21] = system: NCI-H358
How it was run: as §1

[22] = system: HCC-15
How it was run: as §1

[23] = system: NCI-H1975
How it was run: as §1

[24] = system: COR-L 105
How it was run: as §1

[25] = system: HCC-827
How it was run: as §1

With `CCCCCCCCCCCC1=C(O)C(=O)C=C(O)C1=O` [Embelin] + CC(=O)c1c(C)c2cnc(Nc3ccc(N4CCNCC4)cn3)nc2n(C2CCCC2)c1=O [Palbociclib] (partner 0.5 µM) as the molecule, how does the relative viability ([1]; first compound 0.08 µM) read?
The relative viability was 0.657.

What about the relative viability ([1]; first compound 0.8 µM) of the same molecule?
The relative viability was 0.701.

What about the relative viability ([1]; first compound 2.53 µM) of the same molecule?
Its relative viability is 0.693.

What about the relative viability ([1]; first compound 8 µM) of the same molecule?
Its relative viability is 0.661.

What about the relative viability ([2]; first compound 0.08 µM) of the same molecule?
Its relative viability is 1.09.

And the relative viability ([2]; first compound 0.8 µM)?
The relative viability was 1.21.

And the relative viability ([2]; first compound 2.53 µM)?
The relative viability was 1.01.

What about the relative viability ([2]; first compound 8 µM) of the same molecule?
The relative viability was 0.983.

What about the relative viability ([3]; first compound 0.08 µM) of the same molecule?
Its relative viability is 0.405.

And the relative viability ([3]; first compound 0.8 µM)?
The relative viability was 0.448.

And the relative viability ([3]; first compound 2.53 µM)?
Its relative viability is 0.528.

And the relative viability ([3]; first compound 8 µM)?
The relative viability was 0.38.

And the relative viability ([4]; first compound 0.08 µM)?
Its relative viability is 0.361.

And the relative viability ([4]; first compound 0.8 µM)?
The relative viability was 0.328.

What about the relative viability ([4]; first compound 2.53 µM) of the same molecule?
Its relative viability is 0.358.

What about the relative viability ([4]; first compound 8 µM) of the same molecule?
Its relative viability is 0.324.

And the relative viability ([5]; first compound 0.08 µM)?
Its relative viability is 0.249.

And the relative viability ([5]; first compound 0.8 µM)?
The relative viability was 0.232.

And the relative viability ([5]; first compound 2.53 µM)?
The relative viability was 0.224.

And the relative viability ([5]; first compound 8 µM)?
Its relative viability is 0.21.

And the relative viability ([6]; first compound 0.08 µM)?
The relative viability was 0.346.

And the relative viability ([6]; first compound 0.8 µM)?
The relative viability was 0.351.

What about the relative viability ([6]; first compound 2.53 µM) of the same molecule?
Its relative viability is 0.313.

And the relative viability ([6]; first compound 8 µM)?
The relative viability was 0.299.

And the relative viability ([7]; first compound 0.08 µM)?
Its relative viability is 0.625.

What about the relative viability ([7]; first compound 0.8 µM) of the same molecule?
Its relative viability is 0.719.

And the relative viability ([7]; first compound 2.53 µM)?
The relative viability was 0.723.

And the relative viability ([7]; first compound 8 µM)?
Its relative viability is 0.766.

What about the relative viability ([8]; first compound 0.08 µM) of the same molecule?
The relative viability was 0.411.

And the relative viability ([8]; first compound 0.8 µM)?
Its relative viability is 0.432.

And the relative viability ([8]; first compound 2.53 µM)?
The relative viability was 0.466.

What about the relative viability ([8]; first compound 8 µM) of the same molecule?
Its relative viability is 0.394.

And the relative viability ([9]; first compound 0.08 µM)?
Its relative viability is 0.405.

And the relative viability ([9]; first compound 0.8 µM)?
The relative viability was 0.419.

What about the relative viability ([9]; first compound 2.53 µM) of the same molecule?
The relative viability was 0.385.

What about the relative viability ([9]; first compound 8 µM) of the same molecule?
Its relative viability is 0.364.

And the relative viability ([10]; first compound 0.08 µM)?
Its relative viability is 0.503.

What about the relative viability ([10]; first compound 0.8 µM) of the same molecule?
The relative viability was 0.543.

And the relative viability ([10]; first compound 2.53 µM)?
The relative viability was 0.547.

What about the relative viability ([10]; first compound 8 µM) of the same molecule?
Its relative viability is 0.488.

And the relative viability ([11]; first compound 0.08 µM)?
Its relative viability is 0.236.

And the relative viability ([11]; first compound 0.8 µM)?
The relative viability was 0.227.

And the relative viability ([11]; first compound 2.53 µM)?
Its relative viability is 0.266.

And the relative viability ([11]; first compound 8 µM)?
The relative viability was 0.248.

What about the relative viability ([12]; first compound 0.08 µM) of the same molecule?
The relative viability was 0.313.

And the relative viability ([12]; first compound 0.8 µM)?
The relative viability was 0.3.

What about the relative viability ([12]; first compound 2.53 µM) of the same molecule?
The relative viability was 0.391.

And the relative viability ([12]; first compound 8 µM)?
The relative viability was 0.335.

What about the relative viability ([13]; first compound 0.08 µM) of the same molecule?
Its relative viability is 0.358.

And the relative viability ([13]; first compound 0.8 µM)?
Its relative viability is 0.406.

And the relative viability ([13]; first compound 2.53 µM)?
Its relative viability is 0.38.

And the relative viability ([13]; first compound 8 µM)?
Its relative viability is 0.354.

And the relative viability ([14]; first compound 0.08 µM)?
The relative viability was 0.752.

What about the relative viability ([14]; first compound 0.8 µM) of the same molecule?
The relative viability was 0.664.

And the relative viability ([14]; first compound 2.53 µM)?
Its relative viability is 0.733.

What about the relative viability ([14]; first compound 8 µM) of the same molecule?
The relative viability was 0.72.

What about the relative viability ([15]; first compound 0.08 µM) of the same molecule?
The relative viability was 0.337.

And the relative viability ([15]; first compound 0.8 µM)?
The relative viability was 0.36.

What about the relative viability ([15]; first compound 2.53 µM) of the same molecule?
The relative viability was 0.323.

What about the relative viability ([15]; first compound 8 µM) of the same molecule?
Its relative viability is 0.37.

What about the relative viability ([16]; first compound 0.08 µM) of the same molecule?
The relative viability was 0.496.

What about the relative viability ([16]; first compound 0.8 µM) of the same molecule?
Its relative viability is 0.459.

What about the relative viability ([16]; first compound 2.53 µM) of the same molecule?
The relative viability was 0.461.

And the relative viability ([16]; first compound 8 µM)?
The relative viability was 0.511.

And the relative viability ([17]; first compound 0.08 µM)?
The relative viability was 0.951.

And the relative viability ([17]; first compound 0.8 µM)?
The relative viability was 1.02.

What about the relative viability ([17]; first compound 2.53 µM) of the same molecule?
Its relative viability is 0.984.

What about the relative viability ([17]; first compound 8 µM) of the same molecule?
The relative viability was 0.979.

And the relative viability ([18]; first compound 0.08 µM)?
The relative viability was 0.303.

And the relative viability ([18]; first compound 0.8 µM)?
Its relative viability is 0.186.

And the relative viability ([18]; first compound 2.53 µM)?
The relative viability was 0.246.

What about the relative viability ([18]; first compound 8 µM) of the same molecule?
Its relative viability is 0.214.

What about the relative viability ([19]; first compound 0.08 µM) of the same molecule?
Its relative viability is 0.324.

What about the relative viability ([19]; first compound 0.8 µM) of the same molecule?
The relative viability was 0.347.

What about the relative viability ([19]; first compound 2.53 µM) of the same molecule?
Its relative viability is 0.328.

And the relative viability ([19]; first compound 8 µM)?
The relative viability was 0.295.

What about the relative viability ([20]; first compound 0.08 µM) of the same molecule?
The relative viability was 0.375.

And the relative viability ([20]; first compound 0.8 µM)?
The relative viability was 0.377.

What about the relative viability ([20]; first compound 2.53 µM) of the same molecule?
The relative viability was 0.391.

And the relative viability ([20]; first compound 8 µM)?
The relative viability was 0.353.

What about the relative viability ([21]; first compound 0.08 µM) of the same molecule?
The relative viability was 0.133.

What about the relative viability ([21]; first compound 0.8 µM) of the same molecule?
The relative viability was 0.161.

What about the relative viability ([21]; first compound 2.53 µM) of the same molecule?
The relative viability was 0.141.

What about the relative viability ([21]; first compound 8 µM) of the same molecule?
The relative viability was 0.131.

What about the relative viability ([22]; first compound 0.08 µM) of the same molecule?
The relative viability was 0.703.

What about the relative viability ([22]; first compound 0.8 µM) of the same molecule?
Its relative viability is 0.757.

What about the relative viability ([22]; first compound 2.53 µM) of the same molecule?
The relative viability was 0.857.

What about the relative viability ([22]; first compound 8 µM) of the same molecule?
Its relative viability is 0.774.

What about the relative viability ([23]; first compound 0.08 µM) of the same molecule?
Its relative viability is 0.601.

What about the relative viability ([23]; first compound 0.8 µM) of the same molecule?
Its relative viability is 0.605.

And the relative viability ([23]; first compound 2.53 µM)?
Its relative viability is 0.783.

And the relative viability ([23]; first compound 8 µM)?
The relative viability was 0.586.

And the relative viability ([24]; first compound 0.08 µM)?
Its relative viability is 0.435.

What about the relative viability ([24]; first compound 0.8 µM) of the same molecule?
Its relative viability is 0.399.

What about the relative viability ([24]; first compound 2.53 µM) of the same molecule?
The relative viability was 0.405.

What about the relative viability ([24]; first compound 8 µM) of the same molecule?
The relative viability was 0.439.

And the relative viability ([25]; first compound 0.08 µM)?
The relative viability was 0.506.

What about the relative viability ([25]; first compound 0.8 µM) of the same molecule?
The relative viability was 0.486.

What about the relative viability ([25]; first compound 2.53 µM) of the same molecule?
Its relative viability is 0.511.

What about the relative viability ([25]; first compound 8 µM) of the same molecule?
Its relative viability is 0.461.
